Experiment [1] has as its system PupVSMC rat neonatal aortic smooth muscle cells. Description: Cell proliferation assay, PupVSMC. Particulars: for inhibitory activity, Pup VSMC: Rat neonatal aortic smooth muscle cells, Table 9, the values are: IC50. The format is cell-based. The method, then: (§1) Early passage rat aortic smooth muscle cells (CV Therapeutics Cell repository) were seeded in 48 well dishes (Falcon, […]) at a density of 20,000 cells/ml of DME containing 5% heat inactivated bovine serum. The cells were incubated in a standard tissue culture incubator for 48 hr. The medium was aspirated and the wells were replenished with 0.2 ml of fresh medium. Compounds of this invention were added at concentrations ranging from 100 to 0.37 μg/ml. After 48 hr incubation, the medium was aspirated and the cultures were treated with 0.2 ml of saline 0.25 μl of phenozine methosulfate solution containing MTS (Cell Titer 96® Aqueous Non-radioactive cell proliferation assay kit, Catalog # G 5430, Promega, 2800 Woods Hollow Road, Madison, Wis. 53711-5399).
(§2) Similar assays were performed using the following cell lines; P388—mouse lymphoid neoplasm; L1210—mouse lympheytic leukemia; Caco2 human colon adenocarcinoma; MCF7 human breast adenocarcinoma; PupVSMC rat neonatal aortic smooth muscle cells; Ovcar human ovarian Carcinoma; Pancl human pancreatic adenocarcinoma; and HUVEC human umbilical cord endothelial cells.

The subject of another experiment is rat carotid artery. Description: Neointima formation following balloon angioplasty, rat carotid artery model. Type of experiment: in vivo. Particulars: 5 mg/mL, acute local delivery, 14 days after injury, treated vs untreated segment. From the text:
In this example, the left common carotid arteries of adult male rats (n=10 per experimental group) were surgically injured using a Fogarty arterial embolectomy catheter. Immediately after injury, the common carotid artery was bisected with a vascular clamp, thereby establishing an untreated and treated segment. A drug delivery catheter was then inserted into the distal half of the common carotid. After drug delivery, the catheter was removed and excess drug was washed out by removing the vascular clamp and re-establishing blood flow before closing the artery. The animals were allowed to recover for 14 days before harvesting the common carotid artery. The harvested tissue was sectioned and the neointimal area was digitized and measured with a computer planimetery system. For each animal, 15 measurements were averaged for the untreated segment and 15 for the treated. {2-[(2-aminoethyl)amino]-9-(methylethyl)purin-6-yl}[(4-chlorophenyl)methyl]amine was administered at a dose of 5 mg/mL reducing the neointimal area about 90% in comparison to the 6% reduction of saline alone.

Experiment [2] deals with L1210 mouse lympheytic leukemia. As to the kind of experiment: Cell proliferation assay, L1210. Particulars: L 120 cells. The format is cell-based. The method, then:
as §1, §2

The subject of experiment [3] is Caco2 human colon adenocarcinoma. Description: Cell proliferation assay, Caco2. Type of experiment: cell-based. The conditions noted are these: Caco2 cells. The method, then:
as §1, §2

Experiment [4] concerns MCF7 human breast adenocarcinoma. As to the kind of experiment: Cell proliferation assay, MCF7. Particulars: MCF7 cells. The format is cell-based. The method, then: as §1, §2
The test system of experiment [5] is Pancl human pancreatic adenocarcinoma. As to the kind of experiment: Cell proliferation assay, Panc1. The conditions noted are these: Panc 1 cells. The format is cell-based. The method, then:
as §1, §2

Experiment [6] has as its system Ovcar human ovarian Carcinoma. As to the kind of experiment: Cell proliferation assay, OvCar. The format is cell-based. The conditions noted are these: OvCar cells. The method, then:
as §1, §2

In experiment [7] the test system is P388 mouse lymphoid neoplasm. Description: Cell proliferation assay, P388. Type of experiment: cell-based. Particulars: P388 cells. The method, then:
as §1, §2

Values after ≈ are worked out from the molar mass of the structure shown.

With `CC(C)n1cnc2c(NCc3ccc(Cl)cc3)nc(NCCN)nc21` [{2-[(2-aminoethyl)amino]-9-(methylethyl)purin-6-yl}[(4-chlorophenyl)methyl]amine], the inhibitory activity, Pup VSMC in experiment [1] came to 0.1 µg/mL. The “reduction of the neointimal area” value in the experiment with rat carotid artery is recorded as “about 90%”.

As for `CC(C)n1cnc2c(NCc3ccc(-c4ccccc4)cc3)nc(N(CCO)CCO)nc21` [2-diethanolamino-6-(4-phenybenzylamino)-9-isopropyl Purine], the IC50 is 1 µg/mL (≈ 2.24 µM) in experiment [2] (Mus musculus, L1210, read-out: IC50 (μg/ml) for Inhibition of Cell Proliferation, L 120); 3.5 µg/mL (≈ 7.84 µM) in experiment [3] (Homo sapiens, Caco-2, read-out: IC50 (μg/ml) for Inhibition of Cell Proliferation, Caco2); 1 µg/mL (≈ 2.24 µM) in experiment [4] (Homo sapiens, read-out: IC50 (μg/ml) for Inhibition of Cell Proliferation, MCF7); 1.3 µg/mL (≈ 2.91 µM) in experiment [5] (Homo sapiens, read-out: IC50 (μg/ml) for Inhibition of Cell Proliferation, Panc 1); 2 µg/mL (≈ 4.48 µM) in experiment [6] (Homo sapiens, read-out: IC50 (μg/ml) for Inhibition of Cell Proliferation, OvCar).

With `COc1ccc(CNc2nc(N3CCOCC3)nc3c2ncn3C(C)C)cc1`, in experiment [7], the “IC50 (μg/ml) for Inhibition of Cell Proliferation, P 388” value is over 5 µg/mL. Besides, the “IC50 (μg/ml) for Inhibition of Cell Proliferation, Panc 1” value in experiment [5] was found to be 5.5 µg/mL. Moreover, the “IC50 (μg/ml) for Inhibition of Cell Proliferation, OvCar” value in experiment [6] was determined as 4.0 µg/mL.

Consider `CC(C)n1cnc2c(Nc3ccc(-c4ccccc4)cc3)nc(N(CCO)CCO)nc21` [2-diethanolamino-6-(4-phenylanilino)-9-isopropylpurine], for which the “IC50 (μg/ml) for Inhibition of Cell Proliferation, P 388” value in experiment [7] came out at 1.0 µg/mL. Moreover, the “IC50 (μg/ml) for Inhibition of Cell Proliferation, L 120” value in experiment [2] was found to be 4.0 µg/mL. Moreover, the “IC50 (μg/ml) for Inhibition of Cell Proliferation, Caco2” value in experiment [3] is 0.5 µg/mL. The “IC50 (μg/ml) for Inhibition of Cell Proliferation, MCF7” value in experiment [4] came out at 4.0 µg/mL. Also, in experiment [5], the “IC50 (μg/ml) for Inhibition of Cell Proliferation, Panc 1” value was 4.0 µg/mL. The “IC50 (μg/ml) for Inhibition of Cell Proliferation, OvCar” value in experiment [6] turned out to be 7.0 µg/mL. Besides, in experiment [1] (PupVSMC cells, Table 8), the “IC50 (μg/ml) for Inhibition of Cell Proliferation, PupVSMC” value came out at 1.0 µg/mL.

The molecule `CC(C)n1cnc2c(NCc3ccc(Cl)cc3)nc(N(CCO)CCO)nc21` displayed an inhibitory activity, Pup VSMC in experiment [1] of 0.3 µg/mL.

In experiment [1], `CC(N)CNc1nc(NCc2ccc(Cl)cc2)c2ncn(C(C)C)c2n1` (centres unmarked) [{2-[(2-aminopropyl)amino]-9-(methylethyl)purin-6-yl}[(4-chlorophenyl)methyl]amine] returned an inhibitory activity, Pup VSMC of 0.1 µg/mL.

For `CC(C)n1cnc2c(NCc3ccc(Cl)cc3)nc(N(CCN)CCO)nc21` [2-[(2-aminoethyl)(6-{[(4-chlorophenyl)methyl]amino}-9-(methylethyl)purin-2-yl)amino]ethan-1-ol], the inhibitory activity, Pup VSMC in experiment [1] is 0.3 µg/mL.

The values are drawn from patent US6790958B2, “Purine inhibitors of cyclin dependent kinase 2 & IKBA” (priority 1996, dated 2004).
